Data set [1] can be described thus: Pharmacokinetics after single s.c. dose in male SCID mice. The class given is in vivo, mouse. The following applies: for peak plasma level: mice (as printed in summary b4); for half-life: male, SCID. An excerpt:
Pharmacokinetics of 5 and 6 and metabolism of 5: The pharmacokinetic properties in male SCID mouse for the two lead compounds, 5 and 6 are studied following our recently described procedure for other CYP17 inhibitors (Nnane et al., “Pharmacokinetic profile of 3β-hydroxy-17-(1H-123-triazol-1-yl)androsta-5,16-diene (VN/87-1), a potent androgen synthesis inhibitor in mice”, J. Steroid Biochem. Molec. Biol., 2001, 71, 145-152; and Handratta et al., “Potent CYP17 inhibitors: improved syntheses, pharmacokinetics and anti-tumor activity in the LNCaP human prostate cancer model”, J. Steroid Biochem. Molec. Biol., 2004, 92, 155-165.
Pharmacokinetic Studies All animal studies are performed according to the guidelines and approval of the Animal Care Committee of the University of Maryland School of Medicine, Baltimore. Male SCID mice weighing 20-22 gm (8-10 weeks old) obtained from NCI, Frederick, Md., USA are maintained in a controlled environment of about 25° C., 50% relative humidity and 12 h of light and 12 h of dark cycles and allowed free access to food and water. Compounds 5 and 6 are formulated in 40% β-cyclodextrin in water and a single subcutaneous dose is given to mice. The animals are sacrificed at various times up to 6 h after drug administration and blood was obtained by cardiac puncture under light halothane (Ayerst, New York, N.Y., USA) anesthesia.
HPLC Analysis: Chromatographic separations and quantification of the steroids and the appropriate internal standards are achieved by a reverse phase HPLC method on a Waters® Novapak® C18 column (3.9×150 mm) protected by Waters® guard cartridge packed with pellicle C18 as previously described. Briefly, the HPLC system used in this study consisted of Waters® solvent delivery system, Waters® controller (Milford, Mass.), coupled to a Waters® 717^plus autosampler and a Waters® 996 photodiode array detector operated at 242.7 nm. The mobile phase composition is Water/MeOH/CH3CN (35:35:30, v/v/v+200 μl, of Et3N and 0.77 g of NH4OAc per 1000 mL of mobile phase) at a flow rate of 1.0 mL/min. The HPLC analysis is performed at ambient temperature and data acquisition and management ius achieved with a Waters® millennium chromatography manager.
Sample Preparation: Test tubes containing mouse plasma (200 μL), 5 or 6 and VN/85-1 (internal standard, 10 μL of 100 μg/mL), are extracted with diethyl ether (2×2 mL) using a vortex mixer for 3 minutes and centrifuged at 3000 g for 5 min. The organic layers are evaporated to dryness under a gentle stream of air. The residue is reconstituted in an aliquot of the mobile phase (100 μL) and filtered using 0.2 μm Teflon filters before HPLC analysis. Calibration Curve and HPLC Assay Validation: The calibration curves for 5 in plasma and tissue and for 6 in plasma are constructed by spiking varying amounts of the compounds into extraction tubes (duplicate) containing plasma (200 μL) and tissue preparations (200 μL) from untreated animals to give final concentrations of 0.1-100.0 μg/mL. Appropriate blank extraction tubes are also prepared and an aliquot of the internal standard is added into each extraction tube to give a final concentration of 5 μg/ml. The calibration samples are taken through the sample preparation procedure as described above. An aliquot of the reconstituted extract (50 μl) is injected into the HPLC system and the ratio of the peak areas for each analyte to that of the internal standard are plotted against concentrations of 5 or 6. The precision and accuracy of the assays are determined from a range of known concentrations of the inhibitors in blank plasma and taken through the HPLC procedure. The study is repeated on three separate occasions.
Data Analysis: Pharmacokinetic calculations are performed as previously described. The non-compartmental pharmacokinetic calculations are performed using WinNOnlin (Scientific Consulting Inc.). […]

Data set [2] has as its target T1, human 5α-reductase type 1 (Homo sapiens, UniProt P18405).
T1 sequence (P18405 1-259): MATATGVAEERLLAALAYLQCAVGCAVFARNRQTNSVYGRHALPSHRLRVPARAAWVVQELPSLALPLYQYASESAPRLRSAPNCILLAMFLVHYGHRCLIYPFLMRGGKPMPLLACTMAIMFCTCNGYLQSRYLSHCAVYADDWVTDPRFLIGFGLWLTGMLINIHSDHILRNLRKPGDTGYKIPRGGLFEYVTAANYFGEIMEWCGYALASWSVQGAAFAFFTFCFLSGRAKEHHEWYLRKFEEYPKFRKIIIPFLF
Description: Human 5α-reductase type 1 assay (DU-145 cell line).

Data set [3] has as its target T2, human 5α-reductase type 2 (Homo sapiens, UniProt P31213).
T2 sequence (P31213 1-254): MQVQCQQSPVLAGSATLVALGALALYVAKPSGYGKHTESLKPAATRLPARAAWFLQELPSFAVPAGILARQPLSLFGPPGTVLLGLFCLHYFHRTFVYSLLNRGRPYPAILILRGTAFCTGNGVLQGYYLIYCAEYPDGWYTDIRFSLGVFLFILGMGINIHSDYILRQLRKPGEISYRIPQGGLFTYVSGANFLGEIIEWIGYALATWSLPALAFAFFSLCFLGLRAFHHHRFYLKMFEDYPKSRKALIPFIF
The data set can be described thus: Human 5α-reductase type 2 assay (BPH tissue homogenate).

A further data set deals with T3, CYP17 (Homo sapiens, UniProt P05093).
T3 sequence (P05093 1-508): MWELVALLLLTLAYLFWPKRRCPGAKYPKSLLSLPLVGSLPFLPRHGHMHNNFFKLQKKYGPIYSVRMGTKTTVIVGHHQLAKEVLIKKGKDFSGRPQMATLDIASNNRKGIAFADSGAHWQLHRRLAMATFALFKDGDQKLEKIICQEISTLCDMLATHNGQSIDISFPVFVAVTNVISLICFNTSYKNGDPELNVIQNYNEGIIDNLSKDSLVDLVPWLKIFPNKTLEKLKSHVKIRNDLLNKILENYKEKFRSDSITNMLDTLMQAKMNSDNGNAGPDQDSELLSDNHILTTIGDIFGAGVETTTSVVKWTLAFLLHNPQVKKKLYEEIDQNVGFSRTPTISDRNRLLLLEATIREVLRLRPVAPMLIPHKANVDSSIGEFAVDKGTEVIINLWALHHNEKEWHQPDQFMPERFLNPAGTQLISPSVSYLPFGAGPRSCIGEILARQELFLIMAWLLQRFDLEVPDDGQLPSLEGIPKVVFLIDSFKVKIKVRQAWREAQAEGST
Description: CYP17 inhibition, acetic acid releasing assay with intact P450c17-expressing E. coli.

Setting [4] is: mouse, plasma, sc, 50 mg/kg, 50 mg/kg s.c., male SCID mice.

We go through two compounds from patent publication US7875599B2, “C-17-heteroaryl steroidal CYP17 inhibitors/antiandrogens, in vitro biological activities, pharmacokinetics and antitumor activity” (University of Maryland, priority 2005, dated 2011).

Like-named read-outs stand apart in the source and are kept apart here.

Broadly, the AUC is concentration integrated over time. In general, Cmax refers to the highest concentration seen after dosing. Broadly, the MRT is the average time that molecules of a dose stay in the body. As usually defined, the Tmax is the time at which the peak concentration occurs. Broadly, the half-life is how long it takes for the measured level to halve. High values mean slow decline, low ones rapid decline. The inhibition is the drop in the measured response relative to a control, in per cent. As usually defined, the IC50 is the concentration that gives 50% inhibition. A higher IC50 goes with weaker potency. Take `C[C@]12CC[C@H](O)CC1=CC[C@@H]1[C@@H]2CC[C@]2(C)C(n3cnc4ccccc43)=CC[C@@H]12` [Compound 5, 3β-Hydroxy-17-(1H-benzimidazol-1-yl)androsta-5,16-diene]: in data set [1] (50 mg/kg s.c., male SCID mice), the AUC was found to be 1440.00 ± 60.23 µg·min/mL, the Cmax stood at 16820 ± 370 ng/mL, the MRT is on record as 65.40 ± 0.60 min and the Tmax turned out to be 30.0 min. This compound also had a Vd in data set [1] (50 mg/kg s.c., male SCID mice) of 2098.99 ± 4. mL/kg. The same compound registered a peak plasma level in data set [1] (50 mg/kg s.c.) of 16.82 ng/mL. Moreover, in data set [1] (100 mg/kg s.c., male SCID mice), the AUC was 1813.94 ± 10.94 µg·min/mL, the Cmax is 32230 ± 340 ng/mL, the MRT was 60.46 ± 1.54 min and the Tmax was determined as 30.00 ± 0.0 min. In addition, the Vd in data set [1] (100 mg/kg s.c., male SCID mice) came to 113276.39 ± 26.71 mL/kg. The half-life in data set [1] (setting [4]) is 44.2 min. The compound further showed a half-life in data set [1] (mouse, plasma, sc, 100 mg/kg, 100 mg/kg s.c., male SCID mice) of 36.6 ± 1.6 min. Also, in data set [1] (s.c. administration, male SCID mice), the “clearance from the systemic circulation” value worked out at 33.1023 mL/min/kg. Also, the inhibition at 10 µM in data set [2] (read-out: 5α-Reductase type 1 % inhibition at 10 μM) stood at 4%. Moreover, in data set [3] (read-out: 5α-Reductase type 2 % inhibition at 10 μM), the inhibition at 10 µM was 53%. At CYP17, this compound showed an IC50 of 300 nM.
In data set [1] (50 mg/kg s.c., male SCID mice), `C[C@]12CCC(=O)C=C1CC[C@@H]1[C@@H]2CC[C@]2(C)C(n3cnc4ccccc43)=CC[C@@H]12` [Compound 6, 17-(1H-benzimidazol-1-yl)androsta-4,16-diene-3-one] came in with a Kel of 0.0183 ± 0.004 min⁻¹. In addition, in data set [1] (50 mg/kg s.c., male SCID mice), the Vd is 4207.24 ± 6.25 mL/kg. For the same compound, the t1/2 in data set [1] (50 mg/kg s.c., male SCID mice, plasma) is 37.93 ± 1.15 min. The peak plasma level in data set [1] (50 mg/kg s.c.) worked out at 5.15 ng/mL. For the same compound, in data set [1] (in vivo pharmacokinetics in mice), the “metabolism of the compound detected in plasma” value was “did not detect any metabolism(s)”. This compound also returned a half-life in data set [1] (setting [4]) of 39.9 min. Besides, in data set [1] (mouse, plasma, sc, 50 mg/kg s.c., male SCID mice, read-out: AUC (converted)), the AUC is 647 µg·min/mL. Further, the peak concentration (Cmax) in data set [1] (mouse, plasma, sc, 50 mg/kg s.c., male SCID mice, read-out: Cmax) was found to be 5150 ± 90 ng/mL. Further, in data set [1] (mouse, plasma, sc, 50 mg/kg s.c., male SCID mice, read-out: MRT (converted)), the MRT is 80 min. The Tmax in data set [1] (mouse, plasma, sc, 50 mg/kg s.c., male SCID mice, read-out: Tmax (converted)) was 60 min. For the same compound, in data set [1] (s.c. administration, mice), the “time after administration at which compound was not detected in plasma” value is listed as 8 h. The values for the IC50 (in data set [2]; in data set [3]; against CYP17) were 770 nM, 480 nM and 915 nM, respectively.
